From ChEMBL document CHEMBL1201862, “PubChem BioAssay data set” (2004)
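A five-concentration, 48-hour dose response in 96-well plates underlies each endpoint, interpolated linearly between surrounding concentrations. Abbreviation: GI50, concentration required for 50% inhibition of growth.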 Active and inactive are the calls of the source. Cut-off read from the data, not from the text of the source: active = GI50 up to about 1.1 µM and inactive = higher.

Tests used:
Assay in all cases: NCI-60 cell line screen, 48 h
EKVX = tested on: EKVX
SK-OV-3 = tested on: SK-OV-3
SK-MEL-2 = tested on: SK-MEL-2
OVCAR-4 = tested on: OVCAR-4
OVCAR-5 = tested on: OVCAR-5
A549 = tested on: A549
M14 = tested on: M14
SF-268 = tested on: SF-268
Hs-578T = tested on: Hs-578T
UO-31 = tested on: UO-31
MDA-N = tested on: MDA-N
OVCAR-3 = tested on: OVCAR-3
Malme-3M = tested on: Malme-3M
SNB-75 = tested on: SNB-75
SF-295 = tested on: SF-295
OVCAR-8 = tested on: OVCAR-8
NCI-H460 = tested on: NCI-H460
MOLT-4 = tested on: MOLT-4
MCF7 = tested on: MCF7
SR = tested on: SR
KM12 = tested on: KM12
NCI-H226 = tested on: NCI-H226
CAKI-1 = tested on: CAKI-1
SW-620 = tested on: SW-620
HT-29 = tested on: HT-29
NCI-H522 = tested on: NCI-H522
NCI-H23 = tested on: NCI-H23
TK-10 = tested on: TK-10
K562 = tested on: K562
SK-MEL-5 = tested on: SK-MEL-5
MDA-MB-435 = tested on: MDA-MB-435
SF-539 = tested on: SF-539
DU-145 = tested on: DU-145
SNB-19 = tested on: SNB-19
RXF 393 = tested on: RXF 393
MDA-MB-231 = tested on: MDA-MB-231
BT-549 = tested on: BT-549
RPMI-8226 = tested on: RPMI-8226
LOX IMVI = tested on: LOX IMVI
NCI/ADR-RES = tested on: NCI/ADR-RES
HCT-15 = tested on: HCT-15
SK-MEL-28 = tested on: SK-MEL-28
UACC-257 = tested on: UACC-257
U-251 = tested on: U-251
UACC-62 = tested on: UACC-62
HOP-92 = tested on: HOP-92
A498 = tested on: A498
786-0 = tested on: 786-0
HCT-116 = tested on: HCT-116
T47D = tested on: T47D
HL-60 = tested on: HL-60
HOP-62 = tested on: HOP-62
ACHN = tested on: ACHN
HCC 2998 = tested on: HCC 2998
IGROV-1 = tested on: IGROV-1
CCRF-CEM = tested on: CCRF-CEM
PC-3 = tested on: PC-3
SN12C = tested on: SN12C
COLO 205 = tested on: COLO 205

CCOC(=O)C(SCCO)C(C(=O)OCC)n1ccc(=O)[nH]c1=O (stereo not drawn)
GI50 (EKVX): 75.9 µM (inactive) | GI50 (SK-OV-3): > 100 µM (inactive) | GI50 (SK-MEL-2): 33.7 µM (inactive) | GI50 (OVCAR-4): > 49.3 µM (inactive) | GI50 (OVCAR-5): 22.1 µM (inactive) | GI50 (A549): > 100 µM (inactive) | GI50 (M14): 27.3 µM (inactive) | GI50 (SF-268): 35.4 µM (inactive) | GI50 (Hs-578T): 36.6 µM (inactive) | GI50 (UO-31): > 92 µM (inactive) | GI50 (MDA-N): 34.8 µM (inactive) | GI50 (OVCAR-3): 23.3 µM (inactive) | GI50 (Malme-3M): 12.5 µM (inactive) | GI50 (SNB-75): 25.4 µM (inactive) | GI50 (SF-295): > 100 µM (inactive) | GI50 (OVCAR-8): 25.1 µM (inactive) | GI50 (NCI-H460): 57.1 µM (inactive) | GI50 (MOLT-4): 3.01 µM (inactive) | GI50 (MCF7): 23.1 µM (inactive) | GI50 (SR): 11.9 µM (inactive) | GI50 (KM12): 37 µM (inactive) | GI50 (NCI-H226): > 35.6 µM (inactive) | GI50 (CAKI-1): 7.83 µM (inactive) | GI50 (SW-620): 12.9 µM (inactive) | GI50 (HT-29): 23.5 µM (inactive) | GI50 (NCI-H522): 3.77 µM (inactive) | GI50 (NCI-H23): 34.3 µM (inactive) | GI50 (TK-10): > 56.8 µM (inactive) | GI50 (K562): 5.55 µM (inactive) | GI50 (SK-MEL-5): 63.5 µM (inactive) | GI50 (MDA-MB-435): 22.4 µM (inactive) | GI50 (SF-539): 31.5 µM (inactive) | GI50 (DU-145): > 100 µM (inactive) | GI50 (SNB-19): > 100 µM (inactive) | GI50 (RXF 393): 24.2 µM (inactive) | GI50 (MDA-MB-231): 35.8 µM (inactive) | GI50 (BT-549): > 58.7 µM (inactive) | GI50 (RPMI-8226): 17.5 µM (inactive) | GI50 (LOX IMVI): 14.8 µM (inactive) | GI50 (NCI/ADR-RES): 25.4 µM (inactive) | GI50 (HCT-15): 17.5 µM | GI50 (SK-MEL-28): 28.8 µM (inactive) | GI50 (UACC-257): > 63.7 µM (inactive) | GI50 (U-251): 27.6 µM (inactive) | GI50 (UACC-62): 20.4 µM (inactive) | GI50 (HOP-92): 13.8 µM (inactive) | GI50 (A498): 75 µM (inactive) | GI50 (786-0): 16.6 µM (inactive) | GI50 (HCT-116): 16.3 µM (inactive) | GI50 (T47D): 38.1 µM (inactive) | GI50 (HL-60): 3.16 µM (inactive) | GI50 (HOP-62): > 60.7 µM (inactive) | GI50 (ACHN): 21.2 µM (inactive) | GI50 (HCC 2998): > 71.8 µM (inactive) | GI50 (IGROV-1): 31.9 µM (inactive) | GI50 (CCRF-CEM): 1.98 µM (inactive) | GI50 (PC-3): > 64 µM (inactive) | GI50 (SN12C): 22.1 µM (inactive) | GI50 (COLO 205): 17.6 µM (inactive)

CCn1c(SCC(=O)N/N=C/c2ccccc2)nc2ccccc2c1=O
GI50 (EKVX): 26.3 µM (inactive) | GI50 (SK-OV-3): 17.8 µM (inactive) | GI50 (SK-MEL-2): 11.7 µM (inactive) | GI50 (OVCAR-4): 14.1 µM (inactive) | GI50 (OVCAR-5): > 52 µM (inactive) | GI50 (A549): 4.89 µM (inactive) | GI50 (M14): 7.16 µM (inactive) | GI50 (SF-268): 15.8 µM (inactive) | GI50 (Hs-578T): 8.41 µM (inactive) | GI50 (UO-31): 29.9 µM (inactive) | GI50 (MDA-N): 2.54 µM (inactive) | GI50 (OVCAR-3): 10 µM (inactive) | GI50 (Malme-3M): 12.5 µM (inactive) | GI50 (SNB-75): 12.8 µM (inactive) | GI50 (SF-295): 4.7 µM (inactive) | GI50 (OVCAR-8): 16.3 µM (inactive) | GI50 (NCI-H460): 2.13 µM (inactive) | GI50 (MOLT-4): 5.14 µM (inactive) | GI50 (MCF7): 4.75 µM (inactive) | GI50 (SR): 0.478 µM (active) | GI50 (KM12): 3.64 µM (inactive) | GI50 (NCI-H226): 10.8 µM (inactive) | GI50 (CAKI-1): 9.08 µM (inactive) | GI50 (SW-620): 1.99 µM (inactive) | GI50 (HT-29): 4.06 µM (inactive) | GI50 (NCI-H522): 3.7 µM (inactive) | GI50 (NCI-H23): 31.8 µM (inactive) | GI50 (TK-10): > 55.1 µM (inactive) | GI50 (K562): 1.87 µM (inactive) | GI50 (SK-MEL-5): 7.94 µM (inactive) | GI50 (MDA-MB-435): 2.11 µM (inactive) | GI50 (SF-539): 10.4 µM (inactive) | GI50 (DU-145): 48.2 µM (inactive) | GI50 (SNB-19): 18.5 µM (inactive) | GI50 (RXF 393): 7.19 µM (inactive) | GI50 (MDA-MB-231): 14.3 µM (inactive) | GI50 (BT-549): 17.3 µM (inactive) | GI50 (RPMI-8226): 14.2 µM (inactive) | GI50 (LOX IMVI): 6.68 µM (inactive) | GI50 (NCI/ADR-RES): 4.05 µM (inactive) | GI50 (HCT-15): 3.87 µM | GI50 (SK-MEL-28): 39.4 µM (inactive) | GI50 (UACC-257): 21.8 µM (inactive) | GI50 (U-251): 18.5 µM (inactive) | GI50 (UACC-62): 5.52 µM (inactive) | GI50 (HOP-92): 26.9 µM (inactive) | GI50 (A498): 8.22 µM (inactive) | GI50 (786-0): 7.66 µM (inactive) | GI50 (HCT-116): 5.42 µM (inactive) | GI50 (T47D): 21.7 µM (inactive) | GI50 (HL-60): 4.8 µM (inactive) | GI50 (HOP-62): 12.8 µM (inactive) | GI50 (ACHN): 36 µM (inactive) | GI50 (HCC 2998): 5.22 µM (inactive) | GI50 (IGROV-1): 12.9 µM (inactive) | GI50 (CCRF-CEM): 9.89 µM (inactive) | GI50 (PC-3): 15 µM (inactive) | GI50 (SN12C): 13.1 µM (inactive) | GI50 (COLO 205): 8.34 µM (inactive)
